According to US5068248A, “N-alkenyl-3-hydroxybenzo[b]thiophene-2-carboxamide derivatives as dual cyclooxygenase and lipoxygenase inhibitors” (Merck & Co., Inc., priority 1989, dated 1991):
Where two headings read alike, the source gives them in different places.

Key:
[1] = test system: PAF-induced hyperalgesia; assay: Platelet Activating Factor (PAF) Induced Hyperalgesia in the Rat; type: in vivo, female Sprague-Dawley rats; details: for responders at 30 mg/kg: Rattus norvegicus, read-out: % Rats Exhibiting Analgesia; for Effect in PAF-induced hyperalgesia assay: p.o.; for Vocalization Threshold: mean in inflamed paw 3 hr after PAF; for % Analgesia: percentage of animals with V.T. greater than 200% of vehicle-treated controls
Protocol: 1. Platelet Activating Factor. Induced Hyperalgesia in the Rat.
Groups of 10 female Sprague-Dawley rats, 35-50 g (Taconic Farms), were fasted overnight prior to testing. Hyperalgesia was induced in the rat by the subplantar injection of 1 ug PAF in physiological saline. Pain threshold was measured by applying pressure to the plantar surface of the hindpaw by means of a compressed air driven piston with a 2 mm tip. Vocalization thresholds were obtained 3 hr after injection of the PAF. Compounds, prepared at various doses in 1% methylcellulose suspension, were administered perorally 30 min before PAF. For each drug treatment group, animals with response pressures in the inflamed paw of 200% of control was considered to be analgesic. The mean vocalization threshold for each group was also calculated.

[2] = test system: PBQ-induced writhing; assay: Phenylbenzoquinone (PBQ)-induced writhing in the Mouse; type: in vivo, female mice (CD-1); details: for ED50: Mus musculus, po; for % Inhibition: writhing
Protocol: 2. PHENYLBENZOQUINONE (PBQ)-induced writhing in the Mouse […] Groups of 10 female mice (CD-1, Charles River Breeding Laboratories), weighing 20-25 g were fasted overnight prior to experiments. […] The number of writhes for each animal was recorded and the group means and standard errors were calculated. The means obtained from the drug treated groups were compared to the vehicle control means values and percent inhibition of writhing was calculated. ED50 values were calculated by regression analysis.

[3] = test system: adjuvant-induced arthritis (Mycobacterium butyricum); assay: Developing Adjuvant-Induced Arthritis Assay in the Lewis Rat; type: in vivo, Female Lewis rats; parameters: Foot Swelling-Day 14: unit not given here; details: for Adrenal Weight / Change Body Weight 0-21 days / Foot Swelling-Day 21 / Thymus Weight / Foot Swelling-Day 14: mean ± SEM; for Bone/Cartilage Destruction Score: score 0-3, 0 = 0 destruction, 3 = Maximum destruction; for Protection from bone/cartilage (hard tissue) destruction, X-ray: day 21, hindpaw joints, Compound A 3.0 and 10 mg/kg/day, Indomethacin 1 mg/kg/day
Protocol: 3. Adjuvant Arthritis Assay
During the development of adjuvant arthritis, the rats lose body weight, the thymus gland involutes and the adrenal gland weight increases.
Female Lewis rats (purchased from Charles River, Wilmington, MA) were sorted into groups of ten in the weight range 160-199 g. The rats were sensitized to Mycobacterium butyricum (Difco) by the subplantar injection of 0.1 ml light mineral oil (Lubinol, Purepac Pharmaceutical Co., Elizabeth, NJ) containing 0.5 mg of the Mycobacterium into the left hindpaw. The Mycobacterium suspension was prepared by grinding in a glass mortar followed by the addition of the appropriate volume of light mineral oil. The suspension was transferred to a glass vial and stirred for 15 minutes on a magnetic stirrer to obtain a uniform suspension. After sensitization the rats were returned to metronic wire-bottomed cages and allowed food and water ad libitum with the food placed on the bottom of the cages for easy access. […] Rats received compound daily perorally as a suspension in 0.25% agar starting on the day of sensitization. Disease was quantitated by measuring the volume of the noninjected hindpaw by mercury displacement on days 0, 14 and 21. On day 21 (at the termination of the experiment) x-rays of the noninjected hindpaw were taken using a Phillips dental x-ray machine. Total body weight was determined on days 0 and 21 and at the termination of the experiment the thymus was removed and weighed. The statistical significance of the data was determined using Students t test.

[4] = test system: indomethacin-induced gastric lesions; type: in vivo, Male Sprague-Dawley rats; details: for No. Gastric Lesions: Mean + S.E.M.
Protocol: Male Sprague-Dawley rats, 130-150 g each, were sorted into groups for assay. The rats were fasted for 24 hours.
Several hours after the administration of compound A, the animals are sacrificed, the stomachs removed, excises along the inner curvature, washed carefully with cool tap water and placed in 0.9% saline. When all groups have been processed, the mucosal region of the stomachs are examined under a magnifying lens and scored according to the total number of lesions present. Group scores represent the mean score of animals in that group. The effect of Compound A on indomethacin-induced gastric lesions is shown below in Table 6: […]

[5] = test system: gastric acid secretion / gastric cytoprotection; details: S. Szabo et al., Experimentia, 38, 254, 1982; cited from earlier work
[6] = Platelet, po, 3 h, Table 2, 30 mg/kg p.o.

CN1C(C(=O)Nc2ccccn2)=C(O)c2ccccc2S1(=O)=O [Piroxicam, reference compound]
responders at 30 mg/kg [1, 6]: 0% | Effect in PAF-induced hyperalgesia assay ([1]; rat): completely ineffective | ED50 [2]: 2 mg/kg

O=C(O)c1cc(-c2ccc(F)cc2F)ccc1O [Diflunisal, reference compound]
responders at 30 mg/kg [1, 6]: 10%

CC(=O)Oc1ccccc1C(=O)O [Aspirin, reference compound]
% Rats Exhibiting Analgesia ([1]; Table 2, 100 mg/kg p.o.): 10%

COc1ccc2c(c1)c(CC(=O)O)c(C)n2C(=O)c1ccc(Cl)cc1 [Indomethacin, reference compound]
% Inhibition Foot Swelling-Day 14 ([3]; 1.0 mg/kg/day P.O.): 87% | % Inhibition Foot Swelling-Day 21 ([3]; 1.0 mg/kg/day P.O.): 88% | Adrenal Weight ([3]; 1.0 mg/kg/day P.O.): 82.7 ± 2.8 mg | Change Body Weight 0-21 days ([3]; 1.0 mg/kg/day P.O.): 0.7 ± 3.4 gm | Foot Swelling-Day 21 ([3]; 1.0 mg/kg/day P.O.): 190 ± 38 | Thymus Weight ([3]; 1.0 mg/kg/day P.O.): 359.6 ± 17.9 mg | Bone/Cartilage Destruction Score ([3]; 1.0 mg/kg/day P.O.): 0.1 | Protection from bone/cartilage (hard tissue) destruction, X-ray [3]: virtually complete protection from hard tissue destruction | % Rats Exhibiting Analgesia ([1]; Table 2, 10 mg/kg p.o.): 10% | Effect in PAF-induced hyperalgesia assay ([1]; rat): completely ineffective | No. Gastric Lesions ([4]; indomethacin alone 10.0 mg/kg P.O.): 12.6 ± 4.4

CC(C(=O)O)c1ccc2oc(-c3ccc(Cl)cc3)nc2c1 (stereo not shown) [Benoxaprofen, reference compound]
responders at 30 mg/kg [1, 6]: 10% | Effect in PAF-induced hyperalgesia assay ([1]; rat): completely ineffective

CCCCC[C@H](O)/C=C/[C@@H]1[C@@H](C/C=C\CCCC(=O)O)[C@H](O)C[C@H]1O [protaglandin F2B]
Gastric cytoprotection [5]: does induce gastric cytoprotection | Inhibition of gastric acid secretion [5]: does not inhibit gastric acid secretion

CC1=C(CC(=O)O)c2cc(F)ccc2/C1=C\c1ccc([S+](C)[O-])cc1 (stereo not shown) [Sulindac, reference compound]
responders at 30 mg/kg [1, 6]: 10%

COc1ccc2cc([C@H](C)C(=O)O)ccc2c1 [Naproxen, reference compound]
% Rats Exhibiting Analgesia ([1]; Table 2, 30 mg/kg p.o.): 10%

O=C(NC=C(c1ccccc1)c1cccs1)c1sc2ccc(C(F)(F)F)cc2c1O [Compound A, 3-hydroxy-5-trifluoromethyl-N-[2-phenyl-2-(2-thienyl)]-benzo[b]thiophene-2-carboxamide]
% Inhibition Foot Swelling-Day 14 ([3]; 3.0 mg/kg/day P.O.): 56% | % Inhibition Foot Swelling-Day 21 ([3]; 3.0 mg/kg/day P.O.): 43% | Adrenal Weight ([3]; 3.0 mg/kg/day P.O.): 74.6 ± 3.3 mg | Change Body Weight 0-21 days ([3]; 3.0 mg/kg/day P.O.): -14.7 ± 3.2 gm | Foot Swelling-Day 14 ([3]; 3.0 mg/kg/day P.O.): 449 ± 83 | Foot Swelling-Day 21 ([3]; 3.0 mg/kg/day P.O.): 921 ± 125 | Thymus Weight ([3]; 3.0 mg/kg/day P.O.): 161.0 ± 17.7 mg | Bone/Cartilage Destruction Score ([3]; 3.0 mg/kg/day P.O.): 2.6 | Effect on thymus weight loss ([3]; 10 mg/kg/day): inhibited the loss in weight of the thymus | % Inhibition Foot Swelling-Day 14 ([3]; 10.0 mg/kg/day P.O.): 73% | % Inhibition Foot Swelling-Day 21 ([3]; 10.0 mg/kg/day P.O.): 66% | Adrenal Weight ([3]; 10.0 mg/kg/day P.O.): 91.8 ± 2.7 mg | Change Body Weight 0-21 days ([3]; 10.0 mg/kg/day P.O.): -12.2 ± 2.9 gm | Foot Swelling-Day 14 ([3]; 10.0 mg/kg/day P.O.): 279 ± 39 | Foot Swelling-Day 21 ([3]; 10.0 mg/kg/day P.O.): 554 ± 67 | Thymus Weight ([3]; 10.0 mg/kg/day P.O.): 241.5 ± 17.1 mg | Bone/Cartilage Destruction Score ([3]; 10.0 mg/kg/day P.O.): 1.1 | Effect on body weight loss ([3]; both dose levels (3.0 and 10 mg/kg/day)): significantly inhibited body weight loss | Inhibition of swelling of the noninjected hindpaw ([3]; chronic (21 days)): marked inhibition of swelling of the noninjected hindpaw | Protection from bone/cartilage (hard tissue) destruction, X-ray [3]: protection of the bone and cartilage destruction was only seen at the 10 mg/kg day dose level | ED50 ([3]; po, 336 h, rat, p.o., swelling of noninjected hindpaw, day 14): 3 mg/kg | ED50 ([1]; Platelet, po, 3 h, rat, dose required to raise VT to greater than 200% of vehicle-treated control in 50% of animals, confidence limits 0.11-0.3): 0.19 mg/kg | % Rats Exhibiting Analgesia ([1]; Table 2, 0.1 mg/kg p.o.): 50% | Vocalization Threshold ([1]; rat, 0.001 mg/kg p.o. 30 min before PAF): 10.2 mmHg | % Analgesia ([1]; rat, 0.001 mg/kg p.o.): 10% | Vocalization Threshold ([1]; rat, 0.01 mg/kg p.o. 30 min before PAF): 13.3 mmHg | % Analgesia ([1]; rat, 0.01 mg/kg p.o.): 25% | Vocalization Threshold ([1]; rat, 0.03 mg/kg p.o. 30 min before PAF): 13.0 mmHg | % Analgesia ([1]; rat, 0.03 mg/kg p.o.): 30% | Vocalization Threshold ([1]; rat, 0.1 mg/kg p.o. 30 min before PAF): 16.9 mmHg | % Analgesia ([1]; rat, 0.1 mg/kg p.o.): 50% | Vocalization Threshold ([1]; rat, 0.3 mg/kg p.o. 30 min before PAF): 17.6 mmHg | % Analgesia ([1]; rat, 0.3 mg/kg p.o.): 50% | Vocalization Threshold ([1]; rat, 1.0 mg/kg p.o. 30 min before PAF): 20.1 mmHg | % Analgesia ([1]; rat, 1.0 mg/kg p.o.): 67% | Vocalization Threshold ([1]; rat, 3.0 mg/kg p.o. 30 min before PAF): 18.3 mmHg | % Analgesia ([1]; rat, 3.0 mg/kg p.o.): 70% | ED50 [2]: 1 mg/kg | Analgesic activity compared with standard drugs ([2]; mouse, PBQ writhing, p.o.): equivalent to piroxicam and greater than ibuprofen | % Inhibition ([2]; mouse, 0.1 mg/kg p.o. 1 hr before PBQ): 9 ± 3% | % Inhibition ([2]; mouse, 0.3 mg/kg p.o. 1 hr before PBQ): 10 ± 5% | % Inhibition ([2]; mouse, 1.0 mg/kg p.o. 1 hr before PBQ): 39 ± 13% | % Inhibition ([2]; mouse, 3.0 mg/kg p.o. 1 hr before PBQ): 78 ± 7% | % Inhibition of Lesions ([4]; 0.1 mg/kg P.O.): 47% | No. Gastric Lesions ([4]; 0.1 mg/kg P.O., indomethacin-induced (10 mg/kg)): 6.7 ± 4.1 | % Inhibition of Lesions ([4]; 0.3 mg/kg P.O.): 60% | No. Gastric Lesions ([4]; 0.3 mg/kg P.O., indomethacin-induced (10 mg/kg)): 5.0 ± 3.1 | % Inhibition of Lesions ([4]; 1.0 mg/kg P.O.): 52% | No. Gastric Lesions ([4]; 1.0 mg/kg P.O., indomethacin-induced (10 mg/kg)): 6.1 ± 5.5 | % Inhibition of Lesions ([4]; 10.0 mg/kg P.O.): 81% | No. Gastric Lesions ([4]; 10.0 mg/kg P.O., indomethacin-induced (10 mg/kg)): 2.4 ± 1.1

CC(C)Cc1ccc(C(C)C(=O)O)cc1 (stereo not shown) [Ibuprofen, reference compound]
responders at 30 mg/kg [1, 6]: 10% | Effect in PAF-induced hyperalgesia assay ([1]; rat): completely ineffective | ED50 [2]: 9 mg/kg
